From US20240254072A1, “DERIVATIVES OF CANNABIDIOL-C4 FOR THE TREATMENT OF EPILEPSY” (priority 2021, published 2024)
Where “and” joins values, the source holds several entries; their conditions need not be identical. Equal entries are not always repeated. Where two headings read alike, the source gives them in different places.

Assays:
[1] = range of toxicology screens, WO 2020/104796; cited from earlier work
[2] = tested on: Maximal Electroshock generalised seizures; details: data of EP3160457 / WO 2020/104796; cited from earlier work
[3] = tested on: pentylenetetrazole-induced generalised seizures; details: data of EP3160457; cited from earlier work
inflammation = details: WO 01/95899; cited from earlier work
[4] = Bioanalysis of plasma and brain concentrations by UPLC-MS/MS; format: in vivo, mice; details: mouse, i.p., 30 min post-dose, Compound I 100 mg/kg, Compound II 150 mg/kg; for Brain concentration / Brain concentration at 30 min: Location Brain; for Plasma Conc. (individual animal) / concentration at 30 min: Location Plasma; for Brain concentration at 30 min / concentration at 30 min: in vivo
Experimental: Each animal was humanely killed immediately after production of a convulsion by destruction of the brain from striking the cranium, followed by the confirmation of permanent cessation of the circulation from decapitation under The Humane Killing of Animals under Schedule 1 to the Animals (Scientific Procedures) Act 1986. Terminal blood and brain collection were performed following decapitation.
Blood was collected in Lithium-heparin tubes and centrifuged at 4 °C for 10 minutes at 1500× g. The resulting plasma was removed (>100 μL) and split into 2 aliquots of 0.5 mL Eppendorf tubes containing 10 μL of ascorbic acid (100 mg/mL) for stabilisation. Brains were removed, washed in saline and halved. Each half was placed into separate 2 mL screw cap cryovials, weighed and frozen on cardice.
Bioanalysis experiments were carried out to determine the quantitative measurement of Compound I and Compound II in plasma and brain.
Six mice were dosed with Compound I at 100 mg/kg and another six with Compound II at 150 mg/kg via intraperitoneal (i.p) injection. Sample analysis was performed 30 min post-dose using a sample volume of 40 μL. Following addition of internal standard (in acetonitrile) and Isopropanol samples were protein precipitated by addition of acetonitrile. Samples were centrifuged and supernatant transferred to a clean 96-well plate (with addition of Tween to minimise non-specific binding to plate materials), evaporated to dryness then reconstituted in suitable solvent. The extracts quantified by ultraperformance liquid chromatography-tandem mass spectrometry (UPLC-MS/MS).

[5] = tested on: tonic hind limb extensor convulsions induced by electroshock (generalised seizure); assay: mini-MEST (maximal electroshock seizure threshold) test in the mouse; details: for CC50 +/- SEM (current producing tonic hind limb extension in 50% of animals) / % change from vehicle (CC50): mouse, i.p., 30 min post dose, diazepam 2.5 mg/kg, Compound I 100 mg/kg, Compound II 150 mg/kg; for CC50 +/- SEM (current producing tonic hind limb extension in 50% of animals): N=6
Experimental: The maximal electroshock seizure threshold (MEST) test is widely utilized preclinically to evaluate pro- or anti-convulsant properties of test compounds (Loscher et al., 1991).
In the MEST test the ability of a drug to alter the seizure threshold current required to induce hind limb tonic extensor convulsions is measured according to an “up and down” method of shock titration (Kimball et al., 1957). An increase in seizure threshold is indicative of anti-convulsant effect.
The ability of a test compound to alter the stimulus intensity, expressed as current (mA), required to induce the presence of tonic hind limb extensor convulsions, is assessed in the MEST.
Naïve mice were acclimatised to the procedure room in their home cages for up to 7 days, with food and water available ad libitum.
All animals were weighed at the beginning of the study and randomly assigned to treatment groups based on a mean distribution of body weight across groups.
The first animal within a treatment group was given a shock at the expected or estimated CC50 current. For subsequent animals, the current was lowered or raised depending on the convulsions outcome from the preceding animal in log scale intervals.
Data generated from each treatment group were used to calculate the CC50±SEM values for the treatment group.
Vehicle: (5% ethanol, 10% solutol in 85% Saline) was prepared as follows: 1 mL of ethanol, 2 mL of solutol were warmed to 60° ° C., in 17 mL of saline (1:2:17).
The test compounds, described herein as Compound I and Compound II, are as shown as Formula I and Formula II respectively. Test compounds were administered at 100 mg/kg (i.p.) for Compound I and 150 mg/kg (i.p.) for Compound II in a 1:2:17 ethanol:solutol:0.9% saline formulation.
The data for each treatment group were recorded as the number of +'s and 0's at each current level employed and this information is then used to calculate the CC50 value (current required for 50% of the animals to show seizure behaviour)±standard error.
Test compound effects were also calculated as percentage change in CC50 from the vehicle control group.
Significant difference between drug-treated animals and controls were assessed according to Litchfield and Wilcoxon (1949).

[6] = read-out: Mean Plasma Conc., Location Brain
[7] = read-out: Plasma Conc., Location Brain (individual animal)
[8] = read-out: Plasma Conc. (individual animal)

Structure (SMILES)	anticonvulsant effect in MES model [2]	anticonvulsant effect in PTZ model [3]	Brain concentration [4]	Plasma Conc. (individual animal) [4]	Brain concentration at 30 min [4, 6]	Brain concentration at 30 min [4, 7]	concentration at 30 min ([4]; read-out: Mean Plasma Conc.)	concentration at 30 min [4, 8]	CC50 +/- SEM (current producing tonic hind limb extension in 50% of animals) [5]	% change from vehicle (CC50) [5]	further results
C=C(C)[C@@H]1CCC(C)=C[C@H]1c1c(O)cc(CCCC)cc1O [CBD-C4, Cannabidiol-C4]	Therapeutic efficacy was shown										toxicology [1]: acceptable toxicology
C=C(C)[C@@H]1CCC(CO)=C[C@H]1c1c(O)cc(CCCCC)cc1O [Compound 7-OH-CBD, 7-hydroxy-cannabidiol]	anticonvulsant effects	anticonvulsant effects									effect in model of inflammation (inflammation): found to be effective
C=C(C)[C@@H]1CCC(CO)=C[C@H]1c1c(O)cc(CCC)cc1O [Compound 7-OH-CBDV, 7-hydroxy-cannabidivarin]	anticonvulsant effects	anticonvulsant effects									
C=C(C)[C@@H]1CCC(CO)=C[C@H]1c1c(O)cc(CCCC)cc1O [Compound I, (1′R,2′R)-4-butyl-5′-(hydroxymethyl)-2′-(prop-1-en-2-yl)-1′,2′,3′,4′-tetrahydro-[1,1′-biphenyl]-2,6-diol]			122.248 µM and 113.886 µM and 107.349 µM and 125.595 µM and 129.784 µM	252.278 µM and 248.66 µM and 242.732 µM	122 µM	131 µM	251 µM	264 µM	>131 mA		occurrence of tonic hindlimb convulsions in treatment group ([5]; Compound I 100 mg/kg i.p., 30 min, 6 animals): did not have any convulsions
C=C(C)[C@@H]1CCC(C(=O)O)=C[C@H]1c1c(O)cc(CCCC)cc1O [Compound II, (1R,6R)-4′-butyl-2′,6′-dihydroxy-6-(prop-1-en-2-yl)-1,4,5,6-tetrahydro-[1,1′-biphenyl]-3-carboxylic acid]			22.356 µM and 22.956 µM and 15.408 µM and 23.332 µM and 19.363 µM	856.643 µM and 1008.984 µM and 1144.841 µM and 1209.706 µM and 1141.405 µM	19.8 µM	15.7 µM	1050 µM	960 µM	<43 mA	<72%	
CN1C(=O)CN=C(c2ccccc2)c2cc(Cl)ccc21 [Diazepam, diazepam, reference compound]										291%	
